In ChEMBL document CHEMBL1201862, “PubChem BioAssay data set” (2004):
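Results reflect a 48-hour exposure of cells in 96-well plates to compound at five concentrations. At the GI50, growth is halved.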 Activity calls are given as the source filed them. No stated cut-off is given here; in the data, active = GI50 up to about 1.1 µM and inactive = higher. Where a SMILES comes first, the peptide text is derived from it. The star is where a group is joined. Boc = CC(C)(C)OC(=O)*; Bn = c1ccc(C*)cc1

Legend:
Experiment in all cases: growth of human tumour cells (NCI), 48 h
OVCAR-8 = system: OVCAR-8
COLO 205 = system: COLO 205
MOLT-4 = system: MOLT-4
DU-145 = system: DU-145
NCI-H23 = system: NCI-H23
BT-549 = system: BT-549
UO-31 = system: UO-31
HCT-15 = system: HCT-15
SF-539 = system: SF-539
UACC-62 = system: UACC-62
KM12 = system: KM12
Hs-578T = system: Hs-578T
RPMI-8226 = system: RPMI-8226
HCC 2998 = system: HCC 2998
SK-MEL-28 = system: SK-MEL-28
MDA-MB-231 = system: MDA-MB-231
SW-620 = system: SW-620
NCI/ADR-RES = system: NCI/ADR-RES
A549 = system: A549
A498 = system: A498

Row | SMILES | GI50 (OVCAR-8) | GI50 (COLO 205) | GI50 (MOLT-4) | GI50 (DU-145) | GI50 (NCI-H23) | GI50 (BT-549) | GI50 (UO-31) | GI50 (HCT-15) | GI50 (SF-539) | GI50 (UACC-62) | GI50 (KM12) | GI50 (Hs-578T) | GI50 (RPMI-8226) | GI50 (HCC 2998) | GI50 (SK-MEL-28) | GI50 (MDA-MB-231) | GI50 (SW-620) | GI50 (NCI/ADR-RES) | GI50 (A549) | GI50 (A498)
1 | O=[N+]([O-])c1cc2[nH]nnc2c2nonc12 | 21.1 µM (inactive) | 17.5 µM (inactive) | 6.18 µM (inactive) | 33.3 µM (inactive) | 26.5 µM (inactive) | 11.1 µM (inactive) | 17.9 µM (inactive) | 29.2 µM | 22.8 µM (inactive) | > 10 µM (inactive) | 33 µM (inactive) | 17.4 µM (inactive) | 24 µM (inactive) | 17.9 µM (inactive) | 38.5 µM (inactive) | 32.7 µM (inactive) | 30.7 µM (inactive) | 48.3 µM (inactive) | 61.5 µM (inactive) | 
2 | CCOC(=O)OC1C(Br)C2CCC1(C)C2(C)C (centres undefined) | 16 µM (inactive) | 13 µM (inactive) | 4.6 µM (inactive) | 18.7 µM (inactive) | 17.2 µM (inactive) | 17.2 µM (inactive) | 12 µM (inactive) | 13.7 µM | 14.1 µM (inactive) | 17.7 µM (inactive) | 14 µM (inactive) | 13.8 µM (inactive) | 5.46 µM (inactive) | 12.3 µM (inactive) | 15.7 µM (inactive) | 11.9 µM (inactive) | 16.1 µM (inactive) | 15.5 µM (inactive) | 16 µM (inactive) | 
3 | CCCNC(=O)c1cc(OC)c(OC)cc1NC(=O)C12CC3CC(CC(C3)C1)C2 | 23.7 µM (inactive) | 24.3 µM (inactive) | 29.9 µM (inactive) | 21.2 µM (inactive) | 16.8 µM (inactive) | 16.7 µM (inactive) | 16.6 µM (inactive) | 17 µM | 22.2 µM (inactive) |  | 17.6 µM (inactive) | 19.8 µM (inactive) | 32.4 µM (inactive) |  | 16.1 µM (inactive) | 16.9 µM (inactive) | > 100 µM (inactive) | 19 µM (inactive) | 17.1 µM (inactive) | 15.1 µM (inactive)
4 | N#Cc1nc(C2=C(Cl)c3ccccc3OC2)[nH]c1C#N | 30.4 µM (inactive) |  | 12.9 µM (inactive) |  | 25.1 µM (inactive) | 18.9 µM (inactive) | 24 µM (inactive) | 34.8 µM | 17.1 µM (inactive) | 22.9 µM (inactive) | 26.1 µM (inactive) | 38.3 µM (inactive) | 24.4 µM (inactive) | 16.3 µM (inactive) | 23.2 µM (inactive) |  | 24.7 µM (inactive) | 41.1 µM (inactive) | 33.3 µM (inactive) | 24.3 µM (inactive)
5 | O=[N+]([O-])c1cccc2nc3ccccc3c(NCCCNc3c4ccccc4nc4cccc([N+](=O)[O-])c34)c12 | < 0.0139 µM (active) | 0.0102 µM (active) | 0.017 µM (active) | < 0.0164 µM (active) | 0.0182 µM (active) | 0.0855 µM (active) | 0.0472 µM (active) | < 0.0138 µM | 0.0161 µM (active) | 0.0513 µM (active) | < 0.013 µM (active) | 0.0162 µM (active) | < 0.01 µM (active) | 0.0157 µM (active) | 0.0505 µM (active) | < 0.0122 µM (active) | < 0.01 µM (active) | 0.249 µM (active) | < 0.0175 µM (active) | 
6 | COc1ccc2c(-c3csc(-c4c[nH]c5ccc(Br)cc45)n3)c[nH]c2c1 | > 100 µM (inactive) | 54.1 µM (inactive) | 23 µM (inactive) | > 100 µM (inactive) | 64.9 µM (inactive) | 67.3 µM (inactive) | > 100 µM (inactive) | 7.53 µM |  | > 100 µM (inactive) | 43.6 µM (inactive) | 74.1 µM (inactive) | 27.1 µM (inactive) |  | > 100 µM (inactive) | 13.9 µM (inactive) | > 100 µM (inactive) | 90.6 µM (inactive) | 91.8 µM (inactive) | 89.3 µM (inactive)
7 | O=C(CSc1nc2ccc(I)cc2c(=O)n1Cc1ccccc1)NNC(=S)Nc1ccccc1 | 3.11 µM (inactive) | 23.1 µM (inactive) | 6.08 µM (inactive) | > 100 µM (inactive) | 15.1 µM (inactive) | 80.5 µM (inactive) |  | 8.95 µM |  | 33.4 µM (inactive) | 34.4 µM (inactive) | 7.78 µM (inactive) | 12.6 µM (inactive) | 43.3 µM (inactive) | > 100 µM (inactive) |  | 33.6 µM (inactive) | 77.6 µM (inactive) | 24.6 µM (inactive) | 3.55 µM (inactive)
8 | COC(=O)C[C@H]1[C@]2(C)C3=C(C)[C@H](c4ccoc4)CC3O[C@@H]2[C@@H]2OC(=O)[C@]3(C)CCC(=O)[C@@]1(C)[C@@H]23 (some centres undefined) | 44.8 µM (inactive) | 62.8 µM (inactive) | 20 µM (inactive) | 32.4 µM (inactive) | 46.5 µM (inactive) | 51.5 µM (inactive) | 54.5 µM (inactive) | 38.8 µM |  | 49.2 µM (inactive) | > 100 µM (inactive) | 36.1 µM (inactive) | 19.1 µM (inactive) |  | 32.5 µM (inactive) | > 100 µM (inactive) | 50.6 µM (inactive) | 48.6 µM (inactive) | 47.1 µM (inactive) | > 100 µM (inactive)
9 | COC1(OC)CC(CO)(CNc2cc(Cl)nc(N)n2)C1 | > 100 µM (inactive) | > 100 µM (inactive) | > 100 µM (inactive) | > 100 µM (inactive) | > 100 µM (inactive) | > 100 µM (inactive) | > 100 µM (inactive) | > 100 µM | > 100 µM (inactive) | > 100 µM (inactive) | > 100 µM (inactive) | > 100 µM (inactive) | > 100 µM (inactive) | > 100 µM (inactive) | > 100 µM (inactive) | > 100 µM (inactive) | > 100 µM (inactive) | > 100 µM (inactive) | > 100 µM (inactive) | 
10 | CSc1cc(Cl)c(C)cc1S(=O)(=O)NC(=O)Nc1ccc(Cl)cc1 | 35.6 µM (inactive) | 15.5 µM (inactive) | 16.8 µM (inactive) |  | 18.4 µM (inactive) | 32 µM (inactive) | 17 µM (inactive) | 20.5 µM |  | 0.48 µM (active) | 24.1 µM (inactive) | 51.8 µM (inactive) | 30.9 µM (inactive) | 16 µM (inactive) | 46.1 µM (inactive) | 29.5 µM (inactive) | 33.7 µM (inactive) | 25.6 µM (inactive) | 33.3 µM (inactive) | 38.2 µM (inactive)
11 | C=C1c2nc3ccccc3n2C=C(c2ccc(Cl)cc2)N1c1ccc(OCCN2CCCCC2)cc1 | > 45 µM (inactive) | > 45 µM (inactive) | > 45 µM (inactive) | > 45 µM (inactive) | > 45 µM (inactive) | > 45 µM (inactive) | > 45 µM (inactive) | > 45 µM | > 100 µM (inactive) | > 45 µM (inactive) | > 45 µM (inactive) |  | 2.43 µM (inactive) | > 100 µM (inactive) | > 45 µM (inactive) | > 45 µM (inactive) | > 45 µM (inactive) | > 45 µM (inactive) | > 45 µM (inactive) | > 45 µM (inactive)
12 | O=C1C(NCCc2ccc(O)c([N+](=O)[O-])c2)=CC(=O)c2[nH]cnc21 | 25 µM (inactive) | 43.8 µM (inactive) | 19.8 µM (inactive) |  | 17.1 µM (inactive) | > 10 µM (inactive) | 76.9 µM (inactive) | 39.7 µM | 38 µM (inactive) | 20.8 µM (inactive) | 42.9 µM (inactive) | 83.9 µM (inactive) | 32.7 µM (inactive) | 51.5 µM (inactive) | 14.3 µM (inactive) | 22.7 µM (inactive) | 44.6 µM (inactive) | > 100 µM (inactive) | 28.6 µM (inactive) | 32.1 µM (inactive)
13 | COC(=O)[C@]1(C)CCC[C@]2(C)[C@@H](CCC(=O)C(C)C)[C@]3(C=O)O[C@@H]3C[C@H]21 | 39.4 µM (inactive) | 35 µM (inactive) | 29.9 µM (inactive) | 39.4 µM (inactive) | 28.1 µM (inactive) | 24.7 µM (inactive) | 18.7 µM (inactive) | 26.6 µM | 74.6 µM (inactive) | 50.2 µM (inactive) | 34.3 µM (inactive) | 41.6 µM (inactive) |  | 58.6 µM (inactive) | > 100 µM (inactive) | 52 µM (inactive) | 47.6 µM (inactive) | 25.7 µM (inactive) | > 100 µM (inactive) | 
14 | COC(=O)C(CC(C)C)NC(=O)C(C)NC(=O)C(Cc1ccc(OCc2ccccc2)cc1)NC(=O)C(COCc1ccccc1)NC(=O)OC(C)(C)C (centres undefined) (Boc-S(Bn)Y(Bn)AL-OMe; configuration not given here) | > 100 µM (inactive) | > 100 µM (inactive) | 96.2 µM (inactive) | > 100 µM (inactive) | > 100 µM (inactive) | > 100 µM (inactive) | > 100 µM (inactive) |  | > 100 µM (inactive) | 96.6 µM (inactive) | > 100 µM (inactive) | 58.3 µM (inactive) | > 100 µM (inactive) |  | > 100 µM (inactive) |  | > 100 µM (inactive) | > 100 µM (inactive) | > 100 µM (inactive) | 
15 | Cc1nc(=O)c2cc(CN(C)c3ccc(C(=O)N[C@@H](CCC(=O)O)C(=O)O)s3)ccc2[nH]1 [RALTITREXED] | 0.0883 µM (active) | > 100 µM (inactive) | 0.0977 µM (active) | 0.273 µM (active) |  | 71.4 µM (inactive) |  | > 100 µM | 84.7 µM (inactive) | 0.193 µM (active) | > 100 µM (inactive) | > 100 µM (inactive) | 0.0834 µM (active) |  | > 100 µM (inactive) | > 100 µM (inactive) | > 100 µM (inactive) |  | 11.9 µM (inactive) | 
